pIC50: −log10 of the molar value. Bounds are passed on as bounds.

The first test deals with asexual P. falciparum 3D7 parasites. In words: P. falciparum growth inhibition assay measuring LDH activity (Assay 1). It counts as cell-based. The settings on record: 3D7 strain, parasitized red blood cells, 72 h incubation, LDH activity read by absorbance at 650 nm. The method, then:
A modified version of the assay described in Gamo, F. J., Sanz, L. M., Vidal, J., de Cozar, C., Alvarez, E., Lavandera, J. L., Vanderwall, D. E., Green, D. V., Kumar, V., Hasan, S., Brown, J. R., Peishoff, C. E., Cardon, L. R., Garcia-Bustos, J. F., Nature, 465 (2010) 305-310 (Gamo et al.) was used to assess the activity of compounds against asexual P. falciparum 3D7 parasites. Compounds were pre-dispensed in 384-well plates, RPMI/AlbuMAX growth media was added and P. falciparum inoculated. Plates were incubated for 72 h and then frozen at −80° C. overnight. Lactate dehydrogenase (LDH) activity was quantified with the modified cofactor 3-acetylpyridine adenine dinucleotide (APAD) (Sigma Aldrich) by measuring absorbance of the tetrazolium indicator nitro blue tetrazolium (NBT) (Sigma Aldrich) at 650 nm.
An inoculum of synchronous P. falciparum (3D7 strain) parasitized red blood cells (PRBC) at 0.7% parasitaemia and 2% haematocrit in RPMI-1640, 5% AlbuMAX, 2% D-sucrose, 0.3% glutamine and 150 μM hypoxanthine was used for the assay.
Compound master plates (384-well) were prepared by a 10 pt serial dilution of compounds, from 1 mM to 50.8 nM, in columns 3-12 and 13-22. DMSO was dispensed into columns 1 and 23 of the compound master plate to be used as the positive growth control (100% viability). […] Intermediate compound dilution plates were prepared by dispensing 1 μl from each well of the compound master plate into 11.5 μl of RPMI/AlbuMAX growth media. Duplicate assay plates (384-well) were then prepared by dispensing 0.5 μL of compound from the intermediate dilution plates into 9.5 μl of RPMI/AlbuMAX growth media. The parasite inoculum (30 μL) was dispensed into the assay plates containing compounds using a Multidrop dispenser (Thermo Scientific) such that the final assay volume was 40 μL and final compound concentration was 1 μM-0.05 nM (the volume of compound addition can be adjusted to the preferred and agreed screening concentration). The final DMSO concentration was 0.1% (ideally 0.2% to limit toxicity to parasites), but this is dependent on volume of compound DMSO stock solution that can be supplied. Plates were incubated at 37° C. for 72 h in an atmosphere of 5% CO2, 5% O2, […].
After 72 h of incubation, plates were frozen at −80° C. overnight and then thawed at room temperature for at least 4 h. To evaluate LDH activity, 45 μL of freshly made reaction mix (174 mM sodium L-lactate (Sigma Aldrich), 214 μM 3-acetyl pyridine adenine dinucleotide (APAD) (Sigma Aldrich), 270 μM nitro blue tetrazolium chloride (NBT) (Sigma Aldrich), 4.35 U/mL diaphorase (from Clostridium kluyveri) (Sigma Aldrich), 0.7% Tween 20, 100 mM Tris-HCl pH 7.5) was dispensed using a Multidrop dispenser (Thermo Scientific). Plates were shaken to ensure mixing and absorbance at 650 nm was monitored using a Perkin Elmer Envision plate reader after 30 min of incubation at room temperature. Data were normalized to percent growth inhibition using positive and negative controls, and analysed using TIBCO Spotfire software. […]
Take `C[C@H](NC(=O)c1cccc(C(c2ccccc2)N2C(=N)NC(C)(C)CC2=O)c1)c1ccccc1` (single isomer, unassigned) [Compound 27]: the pIC50 was 7.85. As for `C[C@H](NC(=O)c1cccc(C(c2ccccc2)N2C(=N)NC(C)(C)CC2=O)c1)c1ccccc1` (single isomer, unassigned) [Compound 28], the pIC50 was below 6.00. In turn, `CC(C)[C@]1(C)CC(=O)N(C(c2ccccc2)c2cccc(C(=O)N[C@@H](C)c3ccccc3)c2)C(=N)N1` (some centres unmarked) [Compound 1] had a pIC50 of 8.52. The same measure, in the same setting: then `CC(C)[C@]1(C)CC(=O)N(Cc2cc(F)cc(C(=O)NC(CCN(C)C)c3ccccc3)c2)C(=N)N1` (some centres unmarked) [Compound 34], with 6.51.

Staying with this test, now noted: Plasmodium falciparum, 3D7, Erythrocyte, 72 h, 3D7 strain, parasitized red blood cells, 72 h incubation, LDH activity read by absorbance at 650 nm.
`CC(C)CC(c1ccc(C(F)(F)F)c(C(=O)N2Cc3nccnc3C2)c1)N1C(=N)N[C@](CC2CC2)(c2ccccc2)CC1=O` (some centres unmarked) [Compound 2] gave a pIC50 of 8.89. The same measure, in the same setting: under `CC(C)[C@]1(C)CC(=O)N(Cc2ccc(C(=O)N[C@@H](C)c3cccc(F)c3)s2)C(=N)N1` [Compound 3] stands 8.86; under `CC(C)[C@]1(C)CC(=O)N(Cc2cc(F)cc(C(=O)N[C@H]3CCCc4ccccc43)c2)C(=N)N1` [Compound 4], 8.77. Still for that read-out and setting: then `COCC[C@H](NC(=O)c1cc(Cl)cc(CN2C(=N)N[C@](C)(C(C)C)CC2=O)c1)c1ccccc1` [Compound 5], with 8.60. The compound `CC(C)[C@]1(C)CC(=O)N(Cc2cc(F)cc(C(=O)N[C@H]3CCc4ccccc43)c2)C(=N)N1` [Compound 6] had a pIC50 of 8.53. The same measure, in the same setting: then `N=C1N[C@](CC2CC2)(c2ccccc2)CC(=O)N1Cc1ccc(-c2ccncc2)c(C(=O)N2Cc3nccnc3C2)c1` [Compound 7], with 8.49. In turn, `N=C1N[C@](CC2CC2)(c2ccccc2)CC(=O)N1Cc1ccc(-c2ccccc2)c(C(=O)N2Cc3nccnc3C2)c1` [Compound 8] had a pIC50 of 8.47. In turn, `COCC[C@H](NC(=O)c1cc(F)cc(CN2C(=N)NC3(CCCC3)CC2=O)c1)c1ccccc1` [Compound 9] had a pIC50 of 8.38. Regarding `COCC[C@H](NC(=O)c1cccc(CN2C(=N)N[C@](C)(C(C)C)CC2=O)c1)c1ccccc1` [Compound 10], the pIC50 was 8.27. Take `COCC[C@H](NC(=O)c1cc(F)cc(CN2C(=N)N[C@](C)(C(C)C)CC2=O)c1)c1ccccc1` [Compound 11]: the pIC50 is 8.25. On the same count and under the same terms, then `N=C1N[C@](CC2CC2)(c2ccccc2)CC(=O)N1Cc1ccc(Br)c(C(=O)N2Cc3nccnc3C2)c1` [Compound 12], with 8.22; and `CC(C)[C@]1(C)CC(=O)N([C@H](C)c2cc(F)cc(C(=O)N[C@@H](C)c3ccccc3)c2)C(=N)N1` [Compound 13], with 8.19. Same read-out and setting: then `COCCC[C@H](NC(=O)c1cc(F)cc(CN2C(=N)N[C@](C)(C(C)C)CC2=O)c1)c1ccccc1` [Compound 14], with 8.18; and `CC(C)[C@]1(C)CC(=O)N(Cc2cccc(N3C[C@@H](c4ccccc4)CC3=O)c2)C(=N)N1` [Compound 15], with 8.11. As to `CC(C)[C@]1(C)CC(=O)N([C@H](C)c2cccc(N3C[C@@H](c4ccccc4)CC3=O)c2)C(=N)N1` [Compound 16], the pIC50 was 8.09. Same read-out and setting: under `COCC[C@H](NC(=O)c1cc(F)cc(CN2C(=N)N[C@](C)(C(C)C)CC2=O)c1)c1ccc(F)cc1` [Compound 17] stands 7.98; under `CC(C)[C@]1(C)CC(=O)N(Cc2cc(C(=O)N[C@@H](C)c3ccccc3)ccc2F)C(=N)N1` [Compound 18], 7.89; under `CC(C)[C@]1(C)CC(=O)N(Cc2cc(F)cc(C(=O)NC3CCCCCC3)c2)C(=N)N1` [Compound 19], 7.85.

For the compound `CC(C)[C@]1(C)CC(=O)N([C@H](C)c2cccc(N3C[C@H](c4ccccc4)CC3=O)c2)C(=N)N1` [Compound 20], the negative logarithm of the IC50 (pIC50) was 7.85. Same read-out and setting: under `CC(C)[C@]1(C)CC(=O)N([C@H](C)c2cccc(C(=O)N[C@@H](C)c3cccc(Cl)c3)c2)C(=N)N1` [Compound 21] stands 7.70; under `N=C1N[C@](CC2CC2)(c2ccccc2)CC(=O)N1Cc1ccc(C(F)(F)F)c(C(=O)N2CCn3c(nnc3C(F)(F)F)C2)c1` [Compound 22], 7.57; under `CC(C)[C@]1(C)CC(=O)N(Cc2cc(F)cc(C(=O)N[C@H](C)c3ccccc3)c2)C(=N)N1` [Compound 23], 7.48.

`CC(C)[C@]1(C)CC(=O)N(Cc2cc(F)cc(C(=O)N[C@@H](C)c3ccccc3)c2)C(=N)N1` [Compound 24] showed a pIC50 of 7.31.

`C[C@@]1(c2c(F)cc(F)cc2F)CC(=O)N(Cc2cccc(C(=O)N3Cc4ccccc4C3)c2)C(=N)N1` [Compound 25] had a pIC50 of 6.86. Still for that read-out and setting: under `CC(C)[C@]1(C)CC(=O)N([C@@H](C)c2cccc(N3C[C@H](c4ccccc4)CC3=O)c2)C(=N)N1` [Compound 26] stands 6.43; under `CCC1(CC)CC(=O)N(Cc2cc(F)cc(C(=O)N(C)[C@@H](C)c3ccccc3)c2)C(=N)N1` [Compound 29], 6.06. In turn, `CC(C)[C@]1(C)CC(=O)N(Cc2cc(F)cc(C(=O)NC(CCN(C)C)c3ccccc3)c2)C(=N)N1` (some centres unmarked) [Compound 30] had a pIC50 of 6.59. The compound `CCC1(CC)CC(=O)N(Cc2cc(F)cc(C(=O)N[C@@H](C)c3ccccc3)c2)C(=N)N1` [Compound 31] had a pIC50 of 7.03.

Compound `C[C@H](NC(=O)c1cc(F)cc(CN2C(=N)NC3(CCCC3)CC2=O)c1)c1ccccc1` [Compound 32] gave a pIC50 of 6.30. For the compound `C[C@H](NC(=O)c1cc(F)cc(CN2C(=N)NC3(CCCCC3)CC2=O)c1)c1ccccc1` [Compound 33], the pIC50 is 6.59.

As for `CC(C)[C@]1(C)CC(=O)N(Cc2cc(F)cc(C(=O)N3Cc4ccccc4C3)c2)C(=N)N1` [Compound 35], the pIC50 is 6.41. As for `C[C@H](NC(=O)c1cc(F)cc(CN2C(=N)N[C@@](C)(c3ccccc3)CC2=O)c1)c1ccccc1` [Compound 36], the pIC50 is 6.89. `C[C@H](NC(=O)c1cc(F)cc(CN2C(=N)NC3(CCC(C)(C)CC3)CC2=O)c1)c1ccccc1` [Compound 37] gave a pIC50 of 6.21. `C[C@H](NC(=O)c1cc(F)cc(CN2C(=N)NC(c3ccccc3)(c3ccccc3)CC2=O)c1)c1ccccc1` [Compound 38] showed a pIC50 of 6.24. The same measure, in the same setting: under `C[C@H](NC(=O)c1cc(F)cc(CN2C(=N)NC3(CCC3)CC2=O)c1)c1ccccc1` [Compound 39] stands 6.00; under `CC(C)[C@]1(C)CC(=O)N(Cc2ccc(C(=O)N[C@@H](C)c3ccccc3)cc2)C(=N)N1` [Compound 40], 6.20. The same measure, in the same setting: then `CC(C)[C@]1(C)CC(=O)N(Cc2ccc(C(=O)NCc3ccccc3F)cc2)C(=N)N1` [Compound 41], with 6.37; and `CC(C)[C@]1(C)CC(=O)N(Cc2ccc(C(=O)NCc3cccc(F)c3)cc2)C(=N)N1` [Compound 42], with 6.32.

With `CC(C)[C@]1(C)CC(=O)N(Cc2ccc(C(=O)NCc3ccc(F)cc3)cc2)C(=N)N1` [Compound 43], the pIC50 is 6.07. The same measure, in the same setting: under `Cc1ccccc1CNC(=O)c1ccc(CN2C(=N)N[C@](C)(C(C)C)CC2=O)cc1` [Compound 44] stands 6.49. Still for that read-out and setting: then `Cc1cccc(CNC(=O)c2ccc(CN3C(=N)N[C@](C)(C(C)C)CC3=O)cc2)c1` [Compound 45], with 6.09; and `Cc1ccc(CNC(=O)c2ccc(CN3C(=N)N[C@](C)(C(C)C)CC3=O)cc2)cc1` [Compound 46], with 6.26; and `CC(C)[C@]1(C)CC(=O)N(Cc2ccc(C(=O)N3Cc4ccccc4C3)cc2)C(=N)N1` [Compound 47], with 6.31. The same measure, in the same setting: then `C[C@H](NC(=O)c1cc(F)cc(CN2C(=N)NCC(c3ccccc3)C2=O)c1)c1ccccc1` (some centres unmarked) [Compound 49], with 6.11.

Take `CCC1(CC)CC(=O)N(Cc2cc(F)cc(C(=O)N3Cc4ccccc4C3)c2)C(=N)N1` [Compound 50]: the pIC50 is 6.21. With `CC(C)[C@]1(C)CC(=O)N(C(c2ccccc2)c2cccc(C(=O)N3Cc4ccccc4C3)c2)C(=N)N1` (some centres unmarked) [Compound 51], the pIC50 was 7.31.

The term pIC50 denotes the negative decadic logarithm of the IC50, by convention in mol/L.
